From patent publication US20240317777A1, “NOVEL MACROCYCLIC AMINOPYRAZOLE COMPOUNDS AS CDK2 INHIBITORS” (Accutar Biotechnology Inc., priority 2023, published 2024)
pIC50: −log10 of the molar value. Where two headings read alike, the source gives them in different places.

What was measured:
CDK1-CYCLIN B = CDK1-CYCLIN B (Homo sapiens, UniProt P06493); assay: CDK protein kinase inhibition by ADP-Glo assay, CDK1-CYCLIN B; type: biochemical; conditions: ADP-Glo, 1000 μM ATP, read-out: CDK1-CYCLINB, IC50
CDK1-CYCLIN B, sequence (P06493 whole entry): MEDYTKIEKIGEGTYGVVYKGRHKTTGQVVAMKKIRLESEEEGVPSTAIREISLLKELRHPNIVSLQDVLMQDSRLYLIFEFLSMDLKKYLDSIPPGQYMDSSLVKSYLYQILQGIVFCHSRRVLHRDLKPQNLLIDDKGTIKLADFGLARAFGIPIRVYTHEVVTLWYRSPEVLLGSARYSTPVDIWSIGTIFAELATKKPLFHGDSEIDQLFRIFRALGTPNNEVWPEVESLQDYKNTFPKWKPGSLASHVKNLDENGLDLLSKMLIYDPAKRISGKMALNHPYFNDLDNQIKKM
CDK1-CYCLIN B, sequence (P14635 whole entry partner): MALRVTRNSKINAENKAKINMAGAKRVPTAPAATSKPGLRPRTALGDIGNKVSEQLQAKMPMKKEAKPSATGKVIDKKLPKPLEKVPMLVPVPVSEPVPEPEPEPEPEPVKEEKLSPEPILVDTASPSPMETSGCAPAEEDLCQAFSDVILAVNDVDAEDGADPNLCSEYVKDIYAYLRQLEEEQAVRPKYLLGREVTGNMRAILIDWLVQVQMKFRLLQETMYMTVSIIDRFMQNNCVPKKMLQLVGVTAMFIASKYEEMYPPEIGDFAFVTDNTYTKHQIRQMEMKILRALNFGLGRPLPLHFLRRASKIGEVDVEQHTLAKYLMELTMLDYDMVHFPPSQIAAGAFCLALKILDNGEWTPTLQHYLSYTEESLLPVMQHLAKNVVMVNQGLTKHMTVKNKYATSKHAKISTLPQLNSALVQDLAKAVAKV
Outline: (§1)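 In this assay, substrate phosphorylation by each CDK/cyclin pair is measured indirectly as ADP, read by ADP-Glo luminescence. The reaction uses 1000 μM ATP at 22° C in pH 7.5 buffer with 1% DMSO.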

CDK2-CYCLIN E1 = CDK2-CYCLIN E1 (Homo sapiens, UniProt P24941); assay: CDK protein kinase inhibition by ADP-Glo assay, CDK2-CYCLIN E1; type: biochemical; conditions: ADP-Glo, 1000 μM ATP, read-out: CDK2-CYCLINE, IC50
Outline: as §1

CDK4-CYCLIN D1 = CDK4-CYCLIN D1 (Homo sapiens, UniProt P11802); assay: CDK protein kinase inhibition by ADP-Glo assay, CDK4-CYCLIN D1; type: biochemical; conditions: ADP-Glo, 1000 μM ATP, read-out: CDK4-CYCLIND1, IC50
CDK4-CYCLIN D1, sequence (P11802 whole entry): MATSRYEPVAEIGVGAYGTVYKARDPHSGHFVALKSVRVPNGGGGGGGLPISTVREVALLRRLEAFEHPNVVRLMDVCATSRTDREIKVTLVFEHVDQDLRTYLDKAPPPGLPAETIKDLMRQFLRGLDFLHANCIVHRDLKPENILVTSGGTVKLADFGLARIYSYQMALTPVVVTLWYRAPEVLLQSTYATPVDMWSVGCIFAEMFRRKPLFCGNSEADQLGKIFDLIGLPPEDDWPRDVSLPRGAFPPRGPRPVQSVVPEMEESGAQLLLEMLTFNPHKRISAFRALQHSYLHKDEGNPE
CDK4-CYCLIN D1, sequence (P24385 whole entry partner): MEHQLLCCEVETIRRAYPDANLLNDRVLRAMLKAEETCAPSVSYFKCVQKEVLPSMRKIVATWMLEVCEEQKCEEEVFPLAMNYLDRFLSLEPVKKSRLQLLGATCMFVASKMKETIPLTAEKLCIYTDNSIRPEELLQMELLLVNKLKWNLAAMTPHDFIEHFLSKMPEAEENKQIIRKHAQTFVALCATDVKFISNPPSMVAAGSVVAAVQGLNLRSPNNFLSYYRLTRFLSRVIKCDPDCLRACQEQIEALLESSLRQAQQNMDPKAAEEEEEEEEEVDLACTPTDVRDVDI
Outline: as §1

CDK6-CYCLIN D3 = CDK6-CYCLIN D3 (Homo sapiens, UniProt Q00534); assay: CDK protein kinase inhibition by ADP-Glo assay, CDK6-CYCLIN D3; type: biochemical; conditions: ADP-Glo, 1000 μM ATP, read-out: CDK6-CYCLIND3, IC50
CDK6-CYCLIN D3, sequence (Q00534 whole entry): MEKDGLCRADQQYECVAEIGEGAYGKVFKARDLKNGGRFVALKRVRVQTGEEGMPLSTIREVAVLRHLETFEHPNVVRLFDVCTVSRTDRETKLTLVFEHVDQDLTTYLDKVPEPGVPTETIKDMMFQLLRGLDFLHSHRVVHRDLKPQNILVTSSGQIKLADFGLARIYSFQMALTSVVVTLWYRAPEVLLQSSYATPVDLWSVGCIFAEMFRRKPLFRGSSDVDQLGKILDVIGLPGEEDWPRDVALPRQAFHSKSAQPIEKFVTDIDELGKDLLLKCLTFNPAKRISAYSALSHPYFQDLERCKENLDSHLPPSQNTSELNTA
CDK6-CYCLIN D3, sequence (P30281 whole entry partner): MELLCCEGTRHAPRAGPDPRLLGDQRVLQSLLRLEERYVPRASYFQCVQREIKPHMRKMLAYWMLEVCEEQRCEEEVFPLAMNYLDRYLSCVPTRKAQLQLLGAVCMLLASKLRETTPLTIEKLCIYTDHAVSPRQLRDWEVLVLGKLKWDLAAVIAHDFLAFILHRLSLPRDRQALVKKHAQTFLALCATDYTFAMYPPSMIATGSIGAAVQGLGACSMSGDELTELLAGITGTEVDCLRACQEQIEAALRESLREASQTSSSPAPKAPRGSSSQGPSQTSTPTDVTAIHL
Outline: as §1

CDK9-CYCLIN T1 = CDK9-CYCLIN T1 (Homo sapiens, UniProt P50750); assay: CDK protein kinase inhibition by ADP-Glo assay, CDK9-CYCLIN T1; type: biochemical; conditions: ADP-Glo, 1000 μM ATP, read-out: CDK9-CYCLINT1, IC50
CDK9-CYCLIN T1, sequence (P50750 whole entry): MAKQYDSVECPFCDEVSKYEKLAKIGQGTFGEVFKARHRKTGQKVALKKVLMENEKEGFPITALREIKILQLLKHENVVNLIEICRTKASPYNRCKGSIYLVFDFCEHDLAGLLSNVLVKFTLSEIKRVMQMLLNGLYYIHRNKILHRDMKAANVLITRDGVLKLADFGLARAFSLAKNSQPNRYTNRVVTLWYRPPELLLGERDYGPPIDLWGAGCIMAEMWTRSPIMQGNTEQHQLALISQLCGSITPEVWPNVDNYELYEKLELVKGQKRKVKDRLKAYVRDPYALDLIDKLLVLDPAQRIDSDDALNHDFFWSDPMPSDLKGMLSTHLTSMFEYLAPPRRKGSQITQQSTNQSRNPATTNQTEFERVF
CDK9-CYCLIN T1, sequence (O60563 whole entry partner): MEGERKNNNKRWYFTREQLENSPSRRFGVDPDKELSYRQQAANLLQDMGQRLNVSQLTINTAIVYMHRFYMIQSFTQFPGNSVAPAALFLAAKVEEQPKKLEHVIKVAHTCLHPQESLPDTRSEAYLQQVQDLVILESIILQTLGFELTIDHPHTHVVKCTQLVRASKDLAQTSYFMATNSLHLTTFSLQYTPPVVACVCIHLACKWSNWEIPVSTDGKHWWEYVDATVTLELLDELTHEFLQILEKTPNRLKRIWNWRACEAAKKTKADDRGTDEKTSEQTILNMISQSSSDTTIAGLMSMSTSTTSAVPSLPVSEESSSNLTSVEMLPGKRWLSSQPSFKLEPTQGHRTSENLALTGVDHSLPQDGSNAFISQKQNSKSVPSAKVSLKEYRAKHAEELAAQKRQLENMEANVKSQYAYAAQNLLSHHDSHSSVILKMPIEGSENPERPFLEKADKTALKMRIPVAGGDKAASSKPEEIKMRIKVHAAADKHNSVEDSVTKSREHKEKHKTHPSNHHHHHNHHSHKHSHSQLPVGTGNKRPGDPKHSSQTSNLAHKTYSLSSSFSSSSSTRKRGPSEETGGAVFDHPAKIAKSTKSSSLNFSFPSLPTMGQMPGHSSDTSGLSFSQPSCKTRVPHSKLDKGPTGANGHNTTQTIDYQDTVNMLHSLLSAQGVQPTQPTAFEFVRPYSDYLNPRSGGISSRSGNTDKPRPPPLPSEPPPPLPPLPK
Outline: as §1

[1] = system: Phospho-Rb (Ser807/811) in OVCAR3 cells; assay: Phospho-Rb expression inhibition in OVCAR3 cells quantified by In Cell Western; type: cell-based; conditions: Homo sapiens, OVCAR-3, 24 hours, read-out: OVCAR-3 pRb IC50
Outline: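 In-cell western: after 24 h compound exposure at 37° C, fixed OVCAR3 cells co-stained for pRb Ser807/811 (800 nm channel) and total Rb (680 nm channel), imaged by LI-COR Odyssey.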

[2] = system: CCNE1-amplified OVCAR3 cells; assay: Cell growth inhibition of CCNE1-amplified OVCAR3 cells (CellTiter-Glo); type: cell-based; conditions: Homo sapiens, OVCAR-3, 144 h, 6 days
Outline: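 Growth read-out was CellTiter-Glo luminescence, taken after 10 min at room temperature at the end of a 6-day compound exposure at 37 °C. Compounds were diluted from DMSO stocks across various concentrations.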

CCNE1-normal SKOV3 cells = assay: Cell growth inhibition of CCNE1-normal SKOV3 cells (CellTiter-Glo); type: cell-based; conditions: Homo sapiens, SK-OV-3, 144 h, 6 days
Outline: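 Growth was measured by CellTiter-Glo luminescence after 6 days' compound exposure at 37 °C. Cells were plated one day before dosing at 1000 per well in medium with 10% FBS, and compounds were diluted from DMSO stocks.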

SMILES	pIC50 [1]	pIC50 [2]	pIC50 (CDK1-CYCLIN B; Table 23)	pIC50 (CDK2-CYCLIN E1; Table 23)	pIC50 (CDK4-CYCLIN D1; Table 23)	pIC50 (CDK6-CYCLIN D3; Table 23)	pIC50 (CDK9-CYCLIN T1; Table 23)	pIC50 (CCNE1-normal SKOV3 cells)	other results
C[C@@H]1Oc2cc(ccn2)Nc2cc(n[nH]2)[C@H]2CC[C@H](C2)OC(=O)N[C@H]2C[C@H]1C2 [compound 146]	7.30 to 8.00	7.30 to 8.00						5.90 to 6.60	pIC50 (CDK1-CYCLIN B; Table 21): 6.30 to 7.00; pIC50 (CDK2-CYCLIN E1; Table 21): ≥ 8.00; pIC50 (CDK4-CYCLIN D1; Table 21): < 6.30; pIC50 (CDK6-CYCLIN D3; Table 21): 6.30 to 7.00; pIC50 (CDK9-CYCLIN T1; Table 21): < 6.30
C[C@H]1CCO[C@H](C)c2cc(ccn2)Nc2cc(n[nH]2)[C@H]2CC[C@H](C2)OC(=O)N1 [compound 158]	7.30 to 8.00	7.30 to 8.00	6.30 to 7.00	7.30 to 8.00	6.30 to 7.00	< 6.30	< 6.30	5.90 to 6.60	
C[C@@H]1OCC[C@H](C)NC(=O)O[C@@H]2CC[C@@H](C2)c2cc([nH]n2)Nc2ccnc1c2 [compound 159]	8.00 to 8.70	8.00 to 8.70	7.30 to 8.00	≥ 8.00	7.30 to 8.00	7.00 to 7.30	7.00 to 7.30	6.60 to 7.30	
C[C@H]1CC[C@H](C)Oc2cc(ccn2)Nc2cc(n[nH]2)[C@H]2CC[C@H](C2)OC(=O)N1 [compound 162]	8.00 to 8.70	7.30 to 8.00						5.90 to 6.60	pIC50 (CDK1-CYCLIN B; Table 21): 7.30 to 8.00; pIC50 (CDK2-CYCLIN E1; Table 21): ≥ 8.00; pIC50 (CDK4-CYCLIN D1; Table 21): 6.30 to 7.00; pIC50 (CDK6-CYCLIN D3; Table 21): 6.30 to 7.00; pIC50 (CDK9-CYCLIN T1; Table 21): 6.30 to 7.00
C[C@@H]1CC[C@H](C)Oc2cc(ccn2)Nc2cc(n[nH]2)[C@H]2CC[C@H](C2)OC(=O)N1 [compound 163]	7.30 to 8.00	7.30 to 8.00	7.00 to 7.30	≥ 8.00	6.30 to 7.00	6.30 to 7.00	6.30 to 7.00	5.90 to 6.60	
C[C@H]1NC(=O)O[C@@H]2CC[C@@H](C2)c2cc([nH]n2)Nc2ccnc(c2)COCC1(F)F [compound 165]	8.00 to 8.70	7.30 to 8.00						6.60 to 7.30	pIC50 (CDK1-CYCLIN B; Table 31): 7.30 to 8.00; pIC50 (CDK2-CYCLIN E1; Table 31): 7.30 to 8.00; pIC50 (CDK4-CYCLIN D1; Table 31): 7.30 to 8.00; pIC50 (CDK6-CYCLIN D3; Table 31): 7.30 to 8.00; pIC50 (CDK9-CYCLIN T1; Table 31): 7.00 to 7.30

Continued, in another order:

pIC50 [1]	pIC50 [2]	pIC50 (CDK1-CYCLIN B; Table 23)	pIC50 (CDK2-CYCLIN E1; Table 23)	pIC50 (CDK4-CYCLIN D1; Table 23)	pIC50 (CDK6-CYCLIN D3; Table 23)	pIC50 (CDK9-CYCLIN T1; Table 23)	SMILES	pIC50 (CCNE1-normal SKOV3 cells)	other results
8.00 to 8.70	7.30 to 8.00						C[C@@H]1CCC2(CC2)NC(=O)O[C@@H]2CC[C@@H](C2)c2cc([nH]n2)Nc2ccnc(c2)O1 [compound 109]	5.90 to 6.60	pIC50 (CDK1-CYCLIN B; Table 9): 7.30 to 8.00; pIC50 (CDK2-CYCLIN E1; Table 9): ≥ 8.00; pIC50 (CDK4-CYCLIN D1; Table 9): 7.00 to 7.30; pIC50 (CDK6-CYCLIN D3; Table 9): 6.30 to 7.00; pIC50 (CDK9-CYCLIN T1; Table 9): 6.30 to 7.00
8.00 to 8.70	7.30 to 8.00						O=C1N[C@H]2C[C@H](CCc3cc(ccn3)Nc3cc(n[nH]3)[C@H]3CC[C@H](C3)O1)C2 [compound 140]	6.60 to 7.30	pIC50 (CDK1-CYCLIN B; Table 19): 7.30 to 8.00; pIC50 (CDK2-CYCLIN E1; Table 19): ≥ 8.00; pIC50 (CDK4-CYCLIN D1; Table 19): 7.30 to 8.00; pIC50 (CDK6-CYCLIN D3; Table 19): 7.00 to 7.30; pIC50 (CDK9-CYCLIN T1; Table 19): 7.30 to 8.00
≥ 8.70	≥ 8.70						C[C@@H]1NC(=O)O[C@@H]2CC[C@@H](C2)c2cc([nH]n2)Nc2ccnc(c2)COCC1(F)F [compound 164]	7.30 to 8.00	pIC50 (CDK1-CYCLIN B; Table 31): ≥ 8.00; pIC50 (CDK2-CYCLIN E1; Table 31): ≥ 8.00; pIC50 (CDK4-CYCLIN D1; Table 31): ≥ 8.00; pIC50 (CDK6-CYCLIN D3; Table 31): 7.30 to 8.00; pIC50 (CDK9-CYCLIN T1; Table 31): ≥ 8.00
